For assay [1], the system named is Saccharomyces cerevisiae. Description: Antifungal activity against Saccharomyces cerevisiae BY4741 assessed as reduction in cell growth at 1 mM. It counts as functional, organism-based.
Assay [2] concerns Saccharomyces cerevisiae. Description: Antifungal activity against Saccharomyces cerevisiae BY4741 assessed as small budded cells at 1 mM (reference value: 22%). It counts as functional.
Assay [3] relates to Saccharomyces cerevisiae. Briefly: Cell cycle arrest at G1-phase in Saccharomyces cerevisiae BY4741 assessed as accumulation of […] DNA content at 290 uM after 180 mins by flow cytometric analysis. It counts as functional, organism-based.
For assay [4], the system named is Saccharomyces cerevisiae. Briefly: Antifungal activity against top3-deficient Saccharomyces cerevisiae BY4741 at 1 to 1.4 mM after 3 days by serial dilution method. It counts as functional, organism-based.
The test system of assay [5] is Saccharomyces cerevisiae. Briefly: Cell cycle arrest in Saccharomyces cerevisiae BY4741 assessed as accumulation of cells with […] DNA content at G1 phase at 290 uM for 8 hrs by flow cytometric analysis. It counts as functional, organism-based.
Assay [6] deals with Saccharomyces cerevisiae. Briefly: Antifungal activity against wild-type Saccharomyces cerevisiae BY4741 at 1.4 mM by serial dilution method. It counts as functional, organism-based.
The test system of assay [7] is Saccharomyces cerevisiae. Briefly: Antifungal activity against Saccharomyces cerevisiae BY4741 expressing Rad52-GFP assessed as appearance of Rad52 foci by epifluorescence microscopy. It counts as functional, organism-based.
Assay [8] deals with Saccharomyces cerevisiae. Description: Antifungal activity against ski2-deficient Saccharomyces cerevisiae BY4741 at 1 to 1.4 mM after 3 days by serial dilution method. Format: functional, organism-based.
Assay [9] relates to Saccharomyces cerevisiae. Description: Antifungal activity against Saccharomyces cerevisiae BY4741 expressing Rad52-GFP assessed as increase in appearance of Rad52 foci in G1 phase by epifluorescence microscopy. Format: functional, organism-based.
Assay [10] relates to Saccharomyces cerevisiae. Briefly: Antifungal activity against Saccharomyces cerevisiae BY4741 assessed as large budded cells at 1 mM (reference value: 39.4%). It counts as functional.
For assay [11], the system named is Saccharomyces cerevisiae. Description: Antifungal activity against Saccharomyces cerevisiae BY4741 assessed as increase in unbudded cells at 1 mM (reference value: 38.5%). Format: functional.
For assay [12], the system named is Saccharomyces cerevisiae. Briefly: Antifungal activity against xrs2-deficient Saccharomyces cerevisiae BY4741 at 1 to 1.4 mM after 3 days by serial dilution method. It counts as functional, organism-based.
For assay [13], the system named is Saccharomyces cerevisiae. Briefly: Antifungal activity against Saccharomyces cerevisiae BY4741 expressing Rad52-GFP assessed as increase in appearance of Rad52 foci in S-phase by epifluorescence microscopy. Format: functional, organism-based.
The test system of assay [14] is Saccharomyces cerevisiae. Description: Antifungal activity against Saccharomyces cerevisiae BY4741 expressing Rad52-GFP assessed as increase in appearance of Rad52 foci in G2/M phase by epifluorescence microscopy. It counts as functional, organism-based.
Assay [15] concerns Saccharomyces cerevisiae. Briefly: Antifungal activity against top3-deficient Saccharomyces cerevisiae BY4741 at 0.85 to 1.14 mM after 3 days by serial dilution method. It counts as functional, organism-based.
Assay [16] has as its system Saccharomyces cerevisiae. Description: Antifungal activity against wild-type Saccharomyces cerevisiae BY4741 at 1.14 mM after 3 days by serial dilution method. Format: functional, organism-based.
Assay [17] concerns Saccharomyces cerevisiae. Briefly: Antifungal activity against Saccharomyces cerevisiae BY4741 assessed as inhibition of replication at 1 mM. Format: functional, organism-based.
Assay [18] relates to Saccharomyces cerevisiae. Briefly: Antifungal activity against PKC1-deficient Saccharomyces cerevisiae BY4741 by Haploinsufficiency-profiling assay. It counts as functional, organism-based.
Assay [19] has as its system Saccharomyces cerevisiae. Briefly: Induction of cell cycle arrest at G1-phase in Saccharomyces cerevisiae BY4741 assessed as accumulation of 1C DNA content at 1 mM after 180 mins by flow cytometric analysis. Format: functional, organism-based.
Assay [20] concerns Saccharomyces cerevisiae. Description: Antifungal activity against xrs2-deficient Saccharomyces cerevisiae BY4741 at 0.85 to 1.14 mM after 3 days by serial dilution method. It counts as functional, organism-based.
Assay [21] deals with Saccharomyces cerevisiae. Description: Antifungal activity against ski2-deficient Saccharomyces cerevisiae BY4741 at 0.85 to 1.14 mM after 3 days by serial dilution method. It counts as functional, organism-based.
The subject of assay [22] is Saccharomyces cerevisiae. Description: Induction of cell cycle arrest at G1-phase in Saccharomyces cerevisiae BY4741 at 1 mM after 180 mins by flow cytometric analysis. Format: functional, organism-based.

Calls of active or inactive are those of the source. The calls are words filed in the database; no cut-off is given here.

With `Cc1cc(C)[nH]n1`, the result with Saccharomyces cerevisiae [1] was inactive.
Turning to `CCN(CC)CCCN(Cn1nc(C)cc1C)Cn1nc(C)cc1C`, the Activity in the assay on Saccharomyces cerevisiae [2] was determined as 9.7%; in the assay on Saccharomyces cerevisiae [10] it was 38.7%; with Saccharomyces cerevisiae [11], 51.5%. The outcome in the assay with Saccharomyces cerevisiae [3], with Saccharomyces cerevisiae [4], with Saccharomyces cerevisiae [5], with Saccharomyces cerevisiae [7], with Saccharomyces cerevisiae [8] and in the assay with Saccharomyces cerevisiae [9] was Active. The result with Saccharomyces cerevisiae [1], in the assay with Saccharomyces cerevisiae [12], in the assay with Saccharomyces cerevisiae [13] and in the assay on Saccharomyces cerevisiae [14] was Active. Besides, the outcome in the assay on Saccharomyces cerevisiae [6] was inactive.
On to `CCN(CC)CCCN(Cn1cncn1)Cn1cncn1`, for which the result in the assay with Saccharomyces cerevisiae [15], in the assay with Saccharomyces cerevisiae [17], with Saccharomyces cerevisiae [18], in the assay with Saccharomyces cerevisiae [19], in the assay with Saccharomyces cerevisiae [20] and with Saccharomyces cerevisiae [7] was Active. For the same compound, the result with Saccharomyces cerevisiae [21], in the assay with Saccharomyces cerevisiae [9], in the assay with Saccharomyces cerevisiae [22], with Saccharomyces cerevisiae [1], in the assay with Saccharomyces cerevisiae [13] and with Saccharomyces cerevisiae [14] was Active. Besides, the outcome in the assay with Saccharomyces cerevisiae [16] was inactive.
With `Cc1cc(C)n(CO)n1`, the outcome with Saccharomyces cerevisiae [1] was Active.

Source of the values: ChEMBL document CHEMBL1828521, “New azole antifungal agents with novel modes of action: synthesis and biological studies of new tridentate ligands based on pyrazole and triazole” (2011).
